PubChem BioAssay AID977623 (Broad Institute, 2014)
Records with an inconclusive call do not appear. Activity calls are given as the source filed them.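 The calls were made as follows: active = red signal of normal-ribosome cells cut twice as much as green signal of humanized-ribosome cells, growth loss under 30%; inactive = the rest, inconclusive results apart.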

Key:
[1] = wild-type E. coli growth inhibition versus H69 humanized strain – H69 mutant GFP, wild-type RFP, cherry-pick, dose response (AID 977623); conditions: E. coli WT-RFP/H69-GFP mixed culture, fluorescence, 24 h
[2] = system: E. coli WT-RFP/H69-GFP mixed culture, fluorescence, 24 h; assay: as above
[3] = E. coli WT-RFP/H69-GFP mixed culture, 24 h, measured here: total growth OD600
[4] = measured here: H69 humanized strain GFP growth

In the case of `O=C(O)c1cc([N+](=O)[O-])ccc1NCc1ccccc1`, the activity change, negative = inhibition ([1]; at 50 µM (top of the series)) is reported as 3.75 (inactive) and the AC50 [2, 3] is reported as 15.2 µM.

With `Cc1ccc(C)c(NC(=O)CSc2nc3nc(-c4cccs4)cc(C(F)(F)F)c3c(=O)[nH]2)c1` the activity change, negative = inhibition ([1]; at 50 µM (top of the series)) was 16.1 (inactive), the AC50 [2, 3] was 10.3 µM and the AC50 [2, 4] was 12.8 µM.

In the case of `Cc1noc(C)c1NC(=O)Nc1ccc2c(c1)C(=O)N([C@H](C)CO)C[C@@H](C)[C@@H](CN(C)C(=O)Nc1ccc3c(c1)OCO3)OCCCC[C@@H](C)O2`, the activity change, negative = inhibition ([1]; at 50 µM (top of the series)) is reported as 153 (inactive) and the AC50 [2, 3] is reported as > 100 µM.

For `COc1ccc(NC(=O)c2ccc(-c3ccc([N+](=O)[O-])cc3)o2)cc1`, the AC50 [2] was > 100 µM (inactive), the AC50 [2, 3] was 5.6 µM and the AC50 [2, 4] was > 100 µM.

With `CCOC(=O)c1c(NC(=O)Cc2cccs2)sc(C)c1C` the activity change, negative = inhibition ([1]; at 50 µM (top of the series)) was 24.9 (inactive), the AC50 [2, 3] was 9.61 µM and the AC50 [2, 4] was 47.4 µM.

For `C[C@@H]1CCCCO[C@H](CN(C)C(=O)CCCN(C)C)[C@H](C)CN([C@@H](C)CO)C(=O)c2cc(NC(=O)Nc3cccc4ccccc34)ccc2O1`, the activity change, negative = inhibition ([1]; at 50 µM (top of the series)) was 102 (inactive) and the AC50 [2, 4] was > 100 µM.

With `COc1ccc2[nH]c3c(=O)n(CCCCC(=O)NCCC(C)C)c(=S)[nH]c3c2c1` the activity change, negative = inhibition ([1]; at 50 µM (top of the series)) was 100 (inactive).

In the case of `COc1cc2c(cc1[N+](=O)[O-])-c1ccc([N+](=O)[O-])cc1C2`, the activity change, negative = inhibition ([1]; at 26 µM (top of the series)) is reported as 77.3 (inactive), the AC50 [2, 3] is reported as 2.76 µM and the AC50 [2, 4] is reported as > 100 µM.

For `COc1ccc(Cn2c(-c3ccc(Cl)cc3)c[n+]3ccccc23)cc1`, the activity change, negative = inhibition ([1]; at 50 µM (top of the series)) was 26.5 (inactive) and the AC50 [2, 3] was 47.2 µM.
